Experimental data taken from PMC6556873, “Rapid Covalent-Probe Discovery by Electrophile-Fragment Screening” (Journal of the American Chemical Society, 2019).
Read-outs that look alike come from different tables or passages of the source.

What was measured:
BSA = target: T1, BSA (Bos taurus, UniProt P02769); set-up: Intact protein LC/MS covalent labelling, fragments in pools of five, 200 uM each, 4 °C; details: 24 h, 4 °C, pool of five; 200 µM; covalent
T1 construct: gene ALB

NUDT7 = target: T2, NUDT7 (Homo sapiens, UniProt P0C024); set-up: Intact protein LC/MS covalent labelling, fragments in pools of five, 200 uM each, 4 °C; details: 24 h, 4 °C, pool of five; 200 µM; covalent
T2 construct: residues 14-235, E. coli, pNIC28-Bsa4, N-terminal His6 tag removed by TEV, construct 26672 Da
T2 sequence (P0C024 14-235): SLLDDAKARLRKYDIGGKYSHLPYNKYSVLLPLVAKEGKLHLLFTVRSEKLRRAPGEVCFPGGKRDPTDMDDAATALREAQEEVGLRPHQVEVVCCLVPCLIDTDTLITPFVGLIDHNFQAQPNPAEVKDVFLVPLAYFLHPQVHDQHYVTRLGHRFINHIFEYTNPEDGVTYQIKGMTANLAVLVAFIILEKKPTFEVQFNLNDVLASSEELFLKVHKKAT

OTUB2 (OTUB2A) = target: T3, OTUB2 (OTUB2A) (Homo sapiens, UniProt Q96DC9); set-up: Intact protein LC/MS covalent labelling, fragments in pools of five, 200 uM each, 4 °C; details: 24 h, 4 °C, pool of five; 200 µM; covalent
T3 construct: full length residues 1-234, E. coli BL21(DE3)-R3, His tag removed by TEV, construct 27312 Da
T3 sequence (Q96DC9 1-234): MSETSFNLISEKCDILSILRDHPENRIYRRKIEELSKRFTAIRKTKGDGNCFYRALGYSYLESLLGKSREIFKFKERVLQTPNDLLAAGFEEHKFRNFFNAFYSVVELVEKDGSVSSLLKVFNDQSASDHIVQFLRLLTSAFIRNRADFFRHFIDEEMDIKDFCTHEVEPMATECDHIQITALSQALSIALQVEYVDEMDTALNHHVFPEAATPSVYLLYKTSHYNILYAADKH

PCAF = target: T4, PCAF (Homo sapiens, UniProt Q92831); set-up: Intact protein LC/MS covalent labelling, fragments in pools of five, 200 uM each, 4 °C; details: 24 h, 4 °C, pool of five; 200 µM; covalent
T4 construct: gene KAT2B
T4 sequence (Q92831 whole entry, the tested form may be a part): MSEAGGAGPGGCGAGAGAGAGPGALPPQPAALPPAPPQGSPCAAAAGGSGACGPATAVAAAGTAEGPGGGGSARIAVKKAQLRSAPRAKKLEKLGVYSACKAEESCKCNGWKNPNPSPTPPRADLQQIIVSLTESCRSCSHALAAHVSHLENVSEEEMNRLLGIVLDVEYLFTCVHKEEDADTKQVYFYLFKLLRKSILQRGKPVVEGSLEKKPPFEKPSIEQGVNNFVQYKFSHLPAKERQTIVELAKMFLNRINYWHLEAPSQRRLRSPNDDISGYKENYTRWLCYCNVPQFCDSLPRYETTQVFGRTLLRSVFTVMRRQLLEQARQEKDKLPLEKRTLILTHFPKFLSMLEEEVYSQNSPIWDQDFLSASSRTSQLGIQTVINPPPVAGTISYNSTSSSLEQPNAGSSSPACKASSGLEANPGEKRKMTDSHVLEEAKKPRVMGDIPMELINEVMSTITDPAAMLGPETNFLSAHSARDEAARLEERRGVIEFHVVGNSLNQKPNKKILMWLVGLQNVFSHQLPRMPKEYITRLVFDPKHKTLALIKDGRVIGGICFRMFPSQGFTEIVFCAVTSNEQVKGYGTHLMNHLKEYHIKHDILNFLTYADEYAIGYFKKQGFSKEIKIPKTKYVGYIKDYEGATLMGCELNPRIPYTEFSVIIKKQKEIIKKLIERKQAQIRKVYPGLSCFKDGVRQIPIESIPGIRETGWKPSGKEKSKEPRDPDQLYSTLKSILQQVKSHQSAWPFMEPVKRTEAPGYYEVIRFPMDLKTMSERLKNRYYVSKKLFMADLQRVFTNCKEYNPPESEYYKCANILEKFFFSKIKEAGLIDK

in vitro [1] = experiment: in vitro; set-up: species or system CCD841, HEK293; details: human, hb2 cells, read-out: HB-2 Cells Viability (%)
in vitro [2] = experiment: in vitro; set-up: species or system HB2, HEK293; details: human, ccd841 cells
in vitro [3] = experiment: in vitro; set-up: species or system HB2, CCD841; details: human, hek293 cells

T1 sequence (P02769 whole entry, the tested form may be a part): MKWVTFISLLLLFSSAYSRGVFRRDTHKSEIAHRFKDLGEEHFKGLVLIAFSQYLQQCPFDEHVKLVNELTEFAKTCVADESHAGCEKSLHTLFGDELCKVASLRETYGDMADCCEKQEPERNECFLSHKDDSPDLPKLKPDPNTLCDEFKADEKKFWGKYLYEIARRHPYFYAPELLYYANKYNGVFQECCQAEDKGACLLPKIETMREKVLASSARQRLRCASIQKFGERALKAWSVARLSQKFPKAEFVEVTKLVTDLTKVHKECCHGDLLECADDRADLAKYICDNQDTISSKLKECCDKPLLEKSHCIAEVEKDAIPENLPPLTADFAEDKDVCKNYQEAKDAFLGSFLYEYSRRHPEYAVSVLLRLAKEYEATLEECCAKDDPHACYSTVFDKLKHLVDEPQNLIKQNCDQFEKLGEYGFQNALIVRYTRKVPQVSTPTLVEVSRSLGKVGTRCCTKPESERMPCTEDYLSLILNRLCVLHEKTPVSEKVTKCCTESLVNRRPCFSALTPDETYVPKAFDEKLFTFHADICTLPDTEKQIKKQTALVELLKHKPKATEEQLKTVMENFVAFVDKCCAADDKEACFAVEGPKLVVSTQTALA

SMILES | BSA (BSA) | NUDT7 (NUDT7) | OTUB2 (OTUB2 (OTUB2A)) | PCAF (PCAF) | viability at 48 h, 10 µM (in vitro [1]) | viability at 48 h, 10 µM (in vitro [2]) | viability at 48 h, 10 µM (in vitro [3])
CC(NC(=O)CCl)C1CC1 (stereo not drawn) [PCM-0102157] | 0 | 0 | 0.1 | 0 | 87.6% | 103% | 111%
C=CC(=O)N1CCC(n2ncc3ccccc32)C1 (stereo not drawn) [PCM-0102966] | 0 | 0 | 0.42 | 0 | 105% | 95.1% | 86.3%
N#CSc1ccc(NC(=O)CCl)c(Br)c1 [PCM-0102466] | 0 | 0 | 0 | 0 | 23.2% | 29.3% | 48.4%
C=CC(=O)N1CCCC(c2nc3c(s2)CCCC3)C1 (stereo not drawn) [PCM-0103069] | 0 | 0 | 0 | 0 | 98.5% | 104% | 79.4%
C=CC(=O)NCc1c2c(nn1C)CCCC2 [PCM-0103044] | 0 | 0 | 0.08 | 0 | 97.2% | 98.1% | 74.2%
Cc1ccc(NC(=O)CCl)cc1Cl [PCM-0102208] | 0 | 0.19 | 0.46 | 0 | 3.7% | 37.4% | 1.2%
Cc1sc(NC(=O)CCl)c(C#N)c1C [PCM-0102202] | 0 | 0 | 0 | 0 | 32.8% | 55.2% | 14.4%
C=CC(=O)N1CC(O)CC1c1ccccc1C(F)(F)F (stereo not drawn) [PCM-0102677] | 0 | 0 | 0 | 0 | 98.4% | 108% | 109%
O=C(CCl)N1CCN(S(=O)(=O)c2ccc(F)c(Cl)c2)CC1 [PCM-0102343] | 0 | 0.12 | 0 | 0 | 1.4% | 14.3% | 2.6%
Cl.O=C(CCl)NCc1cccnc1 [PCM-0102497] | 0 | 0 | 0.05 | 0 | 106% | 90.2% | 107%
CC(C)(C)OC(=O)N1CCCC(CNC(=O)CCl)C1 (stereo not drawn) [PCM-0102923] | 0.13 | 0 | 0.2 | 0 | 99.5% | 91% | 92.2%
O=C(CCl)NCc1ccco1 [PCM-0102671] | 0 | 0 | 0.35 | 0 | 102% | 86% | 86.2%
O=C(CCl)NNC(=O)c1ccc(Cl)cc1 [PCM-0102953] | 0 | 0 | 0.18 | 0 | 83% | 82.1% | 82.8%
Cc1ccc(S(=O)(=O)N2CCN(C(=O)CCl)CC2)c(C)c1 [PCM-0102628] | 0 | 0 | 0 | 0 | 35.6% | 82.6% | 82.4%
CNC(=O)C1CCCN1C(=O)CCl (stereo not drawn) [PCM-0102518] | 0 | 0 | 0 | 0 | 101% | 93.3% | 67.8%
O=C(CCl)Nc1ccc(Br)cc1Cl [PCM-0102505] | 0 | 0.59 | 0.07 | 0 | 41.7% | 74.6% | 31.6%
Cc1nn(C)c(C)c1NC(=O)CCl [PCM-0102949] | 0 | 0 | 0 | 0 | 93.9% | 83.8% | 99.6%
C=CC(=O)N1CCN(C(=O)C2COc3ccccc3O2)CC1 (stereo not drawn) [PCM-0102999] | 0 | 0 | 0 | 0 | 100% | 112% | 88.3%
Cl.O=C(CCl)N1CCN(c2cnccn2)CC1 [PCM-0102889] | 0 | 0 | 0 | 0 | 88.2% | 97.2% | 94.7%
C=CC(=O)N1CCN(C(=O)OC(C)(C)C)CC1 [PCM-0102419] | 0 | 0.16 | 0 | 0 | 100% | 104% | 90.3%
CC(=O)Nc1ccc(NC(=O)CCl)cc1 [PCM-0102114] | 0 | 0 | 0 | 0 | 69.9% | 57.7% | 56%
Cc1noc(NC(=O)CCl)n1 [PCM-0102351] | 0 | 0 | 0 | 0 | 103% | 94.9% | 119%
O=C(CCl)N1CCN(S(=O)(=O)c2ccc3c(c2)CCC3)CC1 [PCM-0102193] | 0 | 0 | 0 | 0 | 2.7% | 20.9% | 2.8%
Cc1cccc(N2CCN(C(=O)CCl)CC2)c1.Cl [PCM-0102185] | 0 | 0.05 | 0 | 0 | 13.1% | 65.7% | 35.9%
